The record followed here is patent publication US11242334B2, “Heterocyclic compounds as kinase inhibitors, compositions comprising the heterocyclic compound, and methods of use thereof” (JS INNOPHARM (SHANGHAI) LTD, priority 2017, dated 2022).

Where only a bound is given, the exact number is not on record here.

In general, IC50 refers to the midpoint of a concentration-inhibition curve. A lower IC50 goes with higher potency.

One test addresses T1, human ERK2 (Homo sapiens, UniProt P28482).
T1 construct: recombinantly expressed as GST-tagged full-length protein purified from E. coli; GST; purchased Invitrogen PV3311; host or cells: E. coli
The test is described as follows: LanthaScreen TR-FRET enzymatic assay, ERK2. As to conditions: IC50 values of ERK2 biochemical activity; 5 μM ATP, 400 nM ATF2-GFP substrate. As to the method:
Compounds were tested in a LanthaScreen™ time-resolved fluorescence energy transfer (TR-FRET) enzymatic assay from Invitrogen. The assay used human ERK2 (Mitogen Activated Kinase 1, Invitrogen, Cat. PV3311) recombinantly expressed as GST-tagged full-length protein purified from E. coli and activated in vitro with MAP2K1. The substrate was a recombinant truncated version (residues 19-96) of ATF2 fused with Green Fluorescent Protein (Invitrogen, Cat. PV4445). Test compounds were prepared and diluted in DMSO in 3-fold serial dilutions to 100× of the final testing concentrations. The compounds were then further diluted to 4× by the kinase reaction buffer (Invitrogen, Cat. PV3189). The enzymatic reaction for compound testing was performed in a white 384-well polypropylene plate (Packard, Cat. 6005214) with a total reaction volume of 10 μl containing 20 ng/ml ERK2, 400 nM substrate, and 5 μM ATP that is around its Km. The assay started with loading 2.5 μl of ERK2 diluted in kinase reaction buffer to wells, followed by addition of equal volume of 4× compounds for 15-min incubation at the room temperature for pre-treatment. The enzymatic reaction was initiated by addition of 5 μl of mixture of the substrate and ATP prepared in kinase reaction buffer. After one hour reaction, 10 μl mixture of EDTA (final 10 mM) and terbium-labeled anti-pATF2 (pThr71) antibody (final 2 nM) (Invitrogen, Cat. PV4451) prepared in TR-FRET antibody dilution buffer (Invitrogen, Cat. PV3574) was added to stop the enzymatic reaction and produce TR-FRET signals. After 30 minutes of incubation at room temperature, the plate was read in Tecan Infinite F200 Pro with the following settings: Excitation 340 nm (30)/Emission1 495 nm (10)/Emission2 520 nm (25). The TR-FRET values were dimensionless numbers that were calculated as the ratio of the acceptor ([…]) signal to the donor (Terbium) signal. Percent of control was calculated as the percentage of compound-treated vs 1% DMSO vehicle-treated. The dose-response curves were generated and the ICsos were calculated by nonlinear sigmoid curve fitting using GraphPad Prism.
The IC50 values of ERK2 biochemical activity for the examples disclosed herein are listed in Table 3, A: ≤10 nM; B: >10 nM and ≤50 nM; C: >50 nM and ≤100 nM; D.>100 nM.
In general terms: Time-resolved FRET reads energy transfer from a long-lived donor to a nearby acceptor.

For a further test, the system named is Colo205 cell line. In words: Colo205 cell proliferation assay (MTT assay, WST-8 readout). As to conditions: Homo sapiens; IC50 values of growth inhibition in Colo 205 cells; 72 hours. The class given is cell-based. As to the method: Compounds disclosed herein were tested for the inhibition of ERK2 by a Colo205 cell proliferation assay commonly known as MTT assay. In this assay, a complete media was prepared by adding 10% fetal bovine serum to RPMI-1640 medium (Life technology). Colon cancer cells (Colo205 cell line) were added to each of 88 wells of a 96 well plate at a seeding density of 5,000 cells/well/90 μL. The cells were allowed to attach to the plate by incubating at 37° C. for 24 hours. The compound was dissolved in DMSO (SIGMA). A solution of test compound was prepared in complete media by serial dilution to obtain the following concentrations: 500 μM, 150 μM, 50 μM, 15 μM, 5 μM, 1.5 μM, 0.5 μM, 0.15 μM and 0.05 μM. The test compound solution (10 μL) was added to each of 80 cell-containing wells. The final concentrations of the compound were following: 50 μM, 15 μM, 5 μM, 1.5 μM, 0.5 μM, 0.15 μM, 0.05 μM, 0.015 μM and 0.005 μM. The final concentration of DMSO is 0.5%. To the 8 remaining cell-containing wells, only complete media (containing 0.5% DMSO) was added to form a control group in order to measure maximal proliferation. To the remaining 8 empty wells, complete media was added to for a vehicle control group in order to measure background. The plates were incubated at 37° C. for 72 hours. 10 μL WST-8 solution (DOJINDO, Cell Counting KIT-8) was added to each well. The plates were further incubated at 37° C. for 2 hours, and then read for the absorbance using a microplate reader at 450 nm.
The IC50 values of growth inhibition in Colo 205 cells for Compounds disclosed are listed in Table 3, A′: ≤0.5 μM; B′: >0.5 μM and ≤1 μM; C′: >1.0 μM and ≤5 uM; D′: >5 μM.
(Tetrazolium dyes change colour on reduction, which living cells bring about.)

T1 sequence (P28482 whole entry): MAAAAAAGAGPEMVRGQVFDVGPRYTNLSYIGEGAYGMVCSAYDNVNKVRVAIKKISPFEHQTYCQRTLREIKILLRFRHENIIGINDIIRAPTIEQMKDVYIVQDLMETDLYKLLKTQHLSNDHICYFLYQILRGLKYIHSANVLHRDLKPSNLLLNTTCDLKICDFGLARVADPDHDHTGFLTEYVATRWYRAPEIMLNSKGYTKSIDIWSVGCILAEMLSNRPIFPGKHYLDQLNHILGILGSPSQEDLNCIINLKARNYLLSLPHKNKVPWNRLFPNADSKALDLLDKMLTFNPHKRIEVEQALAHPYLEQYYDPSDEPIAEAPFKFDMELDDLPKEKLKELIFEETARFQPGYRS

`COc1ccc(-c2n[nH]c3ccc(-c4ccn([C@H](CO)c5cc(F)cc(Br)c5)c(=O)c4)nc23)cn1` [Example 122, (S)-1-(1-(3-bromo-5-fluorophenyl)-2-hydroxyethyl)-4-(3-(6-methoxypyridin-3-yl)-1H-pyrazolo[4,3-b]pyridin-5-yl)pyridin-2(1H)-one]: the IC50 against human ERK2 is less than 10 nM; in the test on Colo205 cell line, 1000 to 5000 nM.
As for `O=c1cc(-c2ccc3[nH]nc(C4CCOCC4)c3c2)ccn1Cc1ccnc(C(F)(F)F)c1` [Example 147, 4-(3-(tetrahydro-2H-pyran-4-yl)-1H-indazol-5-yl)-1-((2-(trifluoromethyl)pyridin-4-yl)methyl)pyriidn-2(1H)-one], the concentration for half-maximal inhibition (IC50) is less than 10 nM against human ERK2 and not above 500 nM in the test with Colo205 cell line.
In the case of `Cc1cc(-c2n[nH]c3ccc(-c4ccn(Cc5cccc(I)c5)c(=O)c4)cc23)ccn1` [Example 57, 1-(3-iodobenzyl)-4-(3-(2-methylpyridin-4-yl)-1H-indazol-5-yl)pyridin-2(1H)-one], the values for the IC50 on human ERK2 and in the test on Colo205 cell line were less than 10 nM and not above 500 nM, respectively.
The like results for `Cn1cc(-c2n[nH]c3ccc(-c4ccn([C@H](CO)c5ccc(F)c(Br)c5)c(=O)c4)cc23)cn1` [Example 46, (S)-1-(1-(3-bromo-4-fluorophenyl)-2-hydroxyethyl)-4-(3-(1-methyl-1H-pyrazol-4-yl)-1H-indazol-5-yl)pyridin-2(1H)-one] were, in that order, less than 10 nM and not above 500 nM.
The like results for `O=c1cc(-c2ccc3[nH]ncc3c2)ccn1[C@H](CO)c1cccc(Cl)c1` [Example 22, (S)-1-(1-(3-chlorophenyl)-2-hydroxyethyl)-4-(1H-indazol-5-yl)pyridin-2(1H)-one] were, in that order, 10 to 50 nM and more than 5000 nM.
As for `O=c1cc(-c2ccc3[nH]nc([C@H]4CC[C@H](O)CC4)c3c2)ccn1Cc1ccnc(C(F)(F)F)c1` [Example 148, 4-(3-((1r,4r)-4-hydroxycyclohexyl)-1H-indazol-5-yl)-1-((2-(trifluoromethyl)pyridin-4-yl)methyl)pyridin-2(1H)-one], the half-maximal inhibitory concentration (IC50) was less than 10 nM against human ERK2 and 1000 to 5000 nM with Colo205 cell line.
For `CC(C)Oc1cc(-c2n[nH]c3ccc(-c4ccn(Cc5cc(F)cc(Br)c5)c(=O)c4)cc23)ccn1` [Example 10, 1-(3-bromo-5-fluorobenzyl)-4-(3-(2-isopropoxypyridin-4-yl)-1H-indazol-5-yl)pyridin-2(1H)-one], the IC50 against human ERK2 was 10 to 50 nM; in the test on Colo205 cell line it was more than 5000 nM.
On to `Cn1cc(-c2n[nH]c3ccc(-c4ccn([C@H](CO)c5cccc(Cl)c5)c(=O)c4)cc23)cn1` [Example 18, (S)-1-(1-(3-chlorophenyl)-2-hydroxyethyl)-4-(3-(1-methyl-1H-pyrazol-4-yl)-1H-indazol-5-yl)pyridin-2(1H)-one], for which the 50% inhibitory concentration (IC50) on human ERK2 is less than 10 nM; in the test on Colo205 cell line it was not above 500 nM.
As to `Cc1cc(-c2n[nH]c3ccc(-c4ccn(Cc5cc(F)ccc5F)c(=O)c4)cc23)ccn1` [Example 72, 1-(2,5-difluorobenzyl)-4-(3-(2-methylpyridin-4-yl)-1H-indazol-5-yl)pyridin-2(1H)-one], the half-maximal inhibitory concentration (IC50) at human ERK2 was less than 10 nM; with Colo205 cell line, 500 to 1000 nM.
Take `Nc1n[nH]c2ccc(-c3ccn([C@H](CO)c4cccc(Cl)c4)c(=O)c3)cc12` [Example 11, (S)-4-(3-amino-1H-indazol-5-yl)-1-(1-(3-chlorophenyl)-2-hydroxyethyl)pyridin-2(1H)-one]: the IC50 against human ERK2 was 10 to 50 nM; in the test with Colo205 cell line, more than 5000 nM.
In the case of `O=c1cc(-c2ccc3[nH]nc(-c4cnn(CCO)c4)c3c2)ccn1[C@H](CO)c1ccc(F)c(Cl)c1` [Example 109, (S)-1-(1-(3-chloro-4-fluorophenyl)-2-hydroxyethyl)-4-(3-(1-(2-hydroxyethyl)-1H-pyrazol-4-yl)-1H-indazol-5-yl)pyridin-2(1H)-one], the results for the half-maximal inhibitory concentration (IC50) at human ERK2 and with Colo205 cell line were less than 10 nM and more than 5000 nM, respectively.
In the same order, the values of `Cc1cc(-c2n[nH]c3ccc(-c4ccn(Cc5cccc(F)c5NC(N)=O)c(=O)c4)cc23)ccn1` [Example 87, 1-(2-fluoro-6-((4-(3-(2-methylpyridin-4-yl)-1H-indazol-5-yl)-2-oxopyridin-1(2H)-yl)methyl)phenyl)urea] are less than 10 nM and more than 5000 nM.
Consider `Cc1cc(-c2n[nH]c3ccc(-c4ccn(Cc5ccc6cn[nH]c6c5)c(=O)c4)cc23)ccn1` [Example 94, 1-((1H-indazol-6-yl)methyl)-4-(3-(2-methylpyridin-4-yl)-1H-indazol-5-yl)pyridin-2(1H)-one], for which the figures for the 50% inhibitory concentration (IC50) against human ERK2 and in the test on Colo205 cell line were less than 10 nM and 1000 to 5000 nM, respectively.
`Cc1cc(-c2n[nH]c3ccc(-c4ccn(Cc5cc(F)cc(Cl)c5)c(=O)c4)cc23)ccn1` [Example 58, 1-(3-chloro-5-fluorobenzyl)-4-(3-(2-methylpyridin-4-yl)-1H-indazol-5-yl)pyridin-2(1H)-one]: the concentration for half-maximal inhibition (IC50) is less than 10 nM on human ERK2 and 500 to 1000 nM in the test with Colo205 cell line.
For the molecule `Cc1cc(-c2n[nH]c3ccc(-c4ccn([C@H](CO)c5ccc(Cl)cc5)c(=O)c4)cc23)ccn1` [Example 32, (S)-1-(1-(4-chlorophenyl)-2-hydroxyethyl)-4-(3-(2-methylpyridin-4-yl)-1H-indazol-5-yl)pyridin-2(1H)-one], the values for the 50% inhibitory concentration (IC50) at human ERK2 and with Colo205 cell line were less than 10 nM and not above 500 nM, respectively.
In the same order, the values of `Cc1n[nH]c2ccc(-c3ccn([C@H](CO)c4cccc(Cl)c4)c(=O)c3)cc12` [Example 3, (S)-1-(1-(3-chlorophenyl)-2-hydroxyethyl)-4-(3-methyl-1H-indazol-5-yl)pyridin-2(1H)-one] are 10 to 50 nM and 1000 to 5000 nM.
On to `Cc1cc(-c2n[nH]c3ccc(-c4ccn(Cc5ccc(Cl)c(F)c5)c(=O)c4)cc23)ccn1` [Example 62, 1-(4-chloro-3-fluorobenzyl)-4-(3-(2-methylpyridin-4-yl)-1H-indazol-5-yl)pyridin-2(1H)-one], for which the IC50 on human ERK2 was less than 10 nM; in the test with Colo205 cell line, 500 to 1000 nM.
In the same order, the values of `O=c1cc(-c2ccc3[nH]nc(-c4ccc(OC5CC5)nc4)c3c2)ccn1[C@H](CO)c1cc(F)cc(Br)c1` [Example 118, (S)-1-(1-(3-bromo-5-fluorophenyl)-2-hydroxyethyl)-4-(3-(6-cyclopropoxypyridin-3-yl)-1H-indazol-5-yl)pyridin-2(1H)-one] are less than 10 nM and not above 500 nM.
On to `O=c1cc(-c2ccc3[nH]nc(-c4ccc(F)cc4)c3c2)ccn1Cc1ccnc(C(F)(F)F)c1` [Example 117, 4-(3-(4-fluorophenyl)-1H-indazol-5-yl)-1-((2-(trifluoromethyl)pyridin-4-yl)methyl)pyridin-2(1H)-one], for which the IC50 against human ERK2 is less than 10 nM; with Colo205 cell line, 1000 to 5000 nM.
In the same order, the values of `Cc1cc(-c2n[nH]c3ccc(-c4ccn(Cc5cc(F)c(F)c(F)c5)c(=O)c4)cc23)ccn1` [Example 76, 4-(3-(2-methylpyridin-4-yl)-1H-indazol-5-yl)-1-(3,4,5-trifluorobenzyl)pyridin-2(1H)-one] are less than 10 nM and 500 to 1000 nM.
